Results on eleven compounds are retold here after patent US5877193A, “Use of N-(4-aryl-thiazol-2-yl)-sulfonamides” (Hoffmann-La Roche Inc., priority 1996, dated 1999).

In general, ED50 refers to the dose that gives a 50% effect, or the effect in half of the subjects. One may read the MIC as the smallest concentration in the dilution series that meets the test's criterion for growth inhibition. What is called IC50 is the concentration at which inhibition is half-maximal. Higher therefore signals weaker potency in that assay.

Converted amounts (≈) assume the structure as drawn. Read-outs that look alike come from different tables or passages of the source. Where only a bound is given, the exact number is not on record here.

Test [1] deals with T1, kynurenin-3-hydroxylase (Rattus norvegicus, UniProt O88867).
T1 construct: The enzyme source is a crude rat kidney mitochondrial preparation; from tissue; host or cells: rat kidney, crude mitochondrial preparation
As to the kind of experiment: ex vivo kynurenin-3-hydroxylase inhibition in the liver after oral administration to rats. The note with it: 2 hours; for ED50: po. As for the experimental part: (§1) Determination of kynurenin-3-hydroxylase in vitro and ex vivo
(§2) The kynurenin-3-hydroxylase inhibiting activity of the compounds in accordance with the invention can be determined in vitro and ex vivo using standard methods. The preparations to be tested were examined in the tests described hereinafter, which are based on the methods published by J. B. Erickson, E. M. Flanagan, S. Russo and J. F. Reinhard [Anal. Biochem. 1992, 205: 257-262].
The substances to be tested are administered orally to male rats of 100-140 g body weight in a dosage of 30 μmol/kg. The kidneys and a part of the liver are removed from the animals, which are decapitated after 2 hours, and frozen at -80° C. until used. In order to measure the enzyme activity, the organs are homogenized in the ratio 1:10 (weight/volume) in sucrose, containing TRIS/HCl, pH 7.4 and PMSF.
(§3) Measurement of the enzyme activity
(§4) Scheme of a typical procedure carried out in an incubation tube of appropriate size or on a microtitre plate:
(§5) 25 μl of the substance to be tested in a suitable concentration (in vitro) or homogenization buffer (ex vivo)
(§6) 25 μl of potassium phosphate buffer 0.2M containing 0.4 units of glucose-6-phosphate dehydrogenase
(§7) 25 μl of the mitochondrial preparation (in vitro) or of the kidney or liver homogenate (ex vivo)
(§8) 25 μl of the substrate L-kynurenin containing L-^3 H-3-kynurenin (0.1 μCi)
(§9) 100 μmol, magnesium chloride 4 mmol, NADPH 200 μmol, glucose-6-phosphate 3 mmol (concentration data as final concentrations)
(§10) incubation: 10 min (in vitro) or 2 min (ex vivo) at 37° C. on a shaking machine
(§11) 150 μl of a 10% suspension of active charcoal (Norit A) in water (to remove unreacted labelled substrate)
(§12) shaking for about one minute
(§13) centrifugation for 4 min at 4000 revolutions/min
(§14) transfer of 50 μl of the charcoal-free supernatant into a counting vessel
(§15) addition of 150 μl of an appropriate scintillator to count the radioactivity of the now-tritiated water, which is a measurement of the enzyme activity which exists.
The ED50 value or, where this is not achieved, the percentage inhibition after administration of a single dosage, is a measurement of the strength of the ex vivo enzyme inhibition which is brought about by the tested substances. The ED50 value is that dosage of test substance which leads to a 50% enzyme inhibition in the investigated tissue homogenates.

For the next test, the system named is Listeria monocytogenes. As to the kind of experiment: antibacterial activity, MIC by microdilution. The note with it: 18 h. Type of test: cell-based. As for the experimental part:
(§16) Method for the determination of antibacterial activity
(§17) The minimum inhibitory concentration (MIC in μg/ml) was determined by the microdilution method in which an Isosensotest bouillon (Oxoid) was used and was complemented with 3% horse blood for Streptococcus and Listeria. The inoculation amount was approximately 5×10^5 CFU/ml. After incubation at 37° C. for 18 h the plates were evaluated at 650 nm. The MIC was determined as the lowest concentration of active substance which brought about a growth inhibition of ≥80% compared to the control.

The next test has as its system Staphylococcus aureus. As to the kind of experiment: antibacterial activity, MIC by microdilution. The format is cell-based. On the procedure:
as §16, §17
In general terms: In broth dilution the organism is exposed to a series of concentrations in liquid medium.

The test system of another test is Streptococcus pneumoniae. As to the kind of experiment: antibacterial activity, MIC by microdilution. Type of test: cell-based. As for the experimental part:
as §16, §17

The test system of the next test is Enterococcus faecalis. As to the kind of experiment: antibacterial activity, MIC by microdilution. Type of test: cell-based. As for the experimental part: as §16, §17
In a further test the test system is Pseudomonas aeruginosa. The experiment in a line: antibacterial activity, MIC by microdilution. The format is cell-based. The note with it: 18 h. On the procedure:
as §16, §17

The subject of the next test is Streptococcus pyogenes. The experiment in a line: antibacterial activity, MIC by microdilution. Type of test: cell-based. The note with it: 18 h. As for the experimental part: as §16, §17
The test system of the next test is Escherichia coli. The experiment in a line: antibacterial activity, MIC by microdilution. The format is cell-based. The note with it: ATCC25922, strain ATCC 25922, BCB 1001/04, 37° C., 18 h. On the procedure: as §16, §17
For test [2], the target named is T1, kynurenin-3-hydroxylase. As to the kind of experiment: in vitro kynurenin-3-hydroxylase inhibition (crude rat kidney mitochondrial preparation). Type of test: biochemical. The note with it: for remaining activity at 1 µM: read-out: % of control at 1 μM; for IC50: pH 7.4.
Text: as §1, §2
The enzyme source is a crude rat kidney mitochondrial preparation which, taken up in the ratio 1:70 (weight/volume) in a potassium phosphate buffer of pH 7.4, containing EGTA, is kept in the frozen state at -80° C. until used. The enzyme test for the in vitro determination differs from the ex vivo determination described hereinafter by the use of the mentioned mitochondreal preparation in place of tissue homogenates as the enzyme source and by a pre-incubation of the enzyme with the substances to be tested at 37° C. for 15 min.
as §3, §4, §5, §6, §7
pre-incubation: 15 min at 37° C. (only in vitro)
as §8, §9, §10, §11, §12, §13, §14, §15
The IC50 value is a measurement of the strength of the in vitro enzyme inhibition which is brought about by the tested substances. It is the concentration of test substance which brings about a 50% inhibition of the enzyme activity.

Setting [3] is: strain BK23, BCB 1003/55, 3% horse blood, 37° C., read-out: MIC.
Where [4] appears, read: ATCC25923, strain ATCC 25923, BCB 1003/04, 37° C., 18 h, read-out: MIC.
[5] abbreviates: ATCC49619, strain ATCC 49619, 3% horse blood, 37° C., 18 h, read-out: MIC.
[6] abbreviates: ATCC29212, strain ATCC 29212, BCB 1003/28, 37° C., 18 h, read-out: MIC.
Where [7] appears, read: strain BA, BCB 1004/01, 37° C., read-out: MIC.
The mark [8] stands for this setting: strain B15, BCB 1003/35, 3% horse blood, 37° C., read-out: MIC.

T1 sequence (O88867 whole entry): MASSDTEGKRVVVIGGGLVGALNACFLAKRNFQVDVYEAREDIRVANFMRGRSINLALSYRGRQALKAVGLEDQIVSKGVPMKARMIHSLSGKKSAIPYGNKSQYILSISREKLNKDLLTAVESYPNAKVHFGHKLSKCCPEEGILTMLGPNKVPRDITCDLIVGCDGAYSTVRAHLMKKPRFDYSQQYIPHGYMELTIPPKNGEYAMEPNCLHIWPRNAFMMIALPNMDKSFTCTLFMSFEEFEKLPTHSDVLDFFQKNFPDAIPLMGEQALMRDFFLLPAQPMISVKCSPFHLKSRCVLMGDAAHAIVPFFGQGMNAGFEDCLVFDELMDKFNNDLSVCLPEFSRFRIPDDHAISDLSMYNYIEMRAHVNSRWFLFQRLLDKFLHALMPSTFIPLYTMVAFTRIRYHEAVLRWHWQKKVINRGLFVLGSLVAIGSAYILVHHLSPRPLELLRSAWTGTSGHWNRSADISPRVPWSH

`COc1ccc(S(=O)(=O)Nc2nc(-c3cc(C(F)(F)F)ccc3F)cs2)cc1OC` [Example 46, 3,4-Dimethoxy-N-[4-(2-fluoro-5-trifluoromethyl-phenyl)-thiazol-2-yl]benzenesulfonamide] yielded an ED50 at kynurenin-3-hydroxylase [1] of 5.3 µmol/kg. Moreover, the MIC in the test with Listeria monocytogenes (setting [3]) was > 256 µg/mL; in the test with Staphylococcus aureus (setting [4]), 32 µg/mL (≈ 69.2 µM); with Streptococcus pneumoniae (setting [5]), > 256 µg/mL; with Enterococcus faecalis (setting [6]), > 256 µg/mL; in the test with Pseudomonas aeruginosa (setting [7]) it was > 256 µg/mL; in the test on Streptococcus pyogenes (setting [8]), 64 µg/mL (≈ 138 µM). Further, in the test with Escherichia coli, the MIC was > 256 µg/mL. Further, the remaining activity at 1 µM at kynurenin-3-hydroxylase [2] was determined as 4.7%. The compound further yielded an IC50 at kynurenin-3-hydroxylase [2] of 22 nM.
`COc1ccc(S(=O)(=O)Nc2nc(-c3cc(C(F)(F)F)ccc3F)cs2)cc1` [Example 41, N-[4-(2-fluoro-5-trifluoromethyl-phenyl)-thiazol-2-yl]-4-methoxy-benzenesulfonamide] had an ED50 on kynurenin-3-hydroxylase [1] of 17 µmol/kg. Further, on kynurenin-3-hydroxylase [2], the remaining activity at 1 µM came out at 18% and half-maximal inhibition (IC50) was put at 50 nM.
For `COc1ccc(S(=O)(=O)Nc2nc(-c3cccc([N+](=O)[O-])c3)cs2)cc1` [Example 8, 4-Methoxy-N-[4-(3-nitro-phenyl)-thiazol-2-yl]-benzenesulfonamide], at kynurenin-3-hydroxylase [1], the “% of control 30 μM/kg p.o in the liver” value is 23.00% and the ED50 was 9 µmol/kg. For the same compound, at kynurenin-3-hydroxylase [2], the remaining activity at 1 µM turned out to be 5% and the IC50 was found to be 44 nM.
On to `COc1ccc(-c2csc(NS(=O)(=O)c3ccc(C)cc3)n2)cc1OC` [Example 6, N-[4-(3,4-Dimethoxy-phenyl)-thiazol-2-yl]-4-methyl-benzenesulfonamide], for which the “% of control 30 μM/kg p.o in the liver” value on kynurenin-3-hydroxylase [1] is listed as 54.00%. Further, at kynurenin-3-hydroxylase [2], the remaining activity at 1 µM is 4.58% and inhibition was half-maximal at 65 nM (IC50).
As to `O=[N+]([O-])c1cccc(-c2csc(NS(=O)(=O)c3ccc4ccccc4c3)n2)c1` [D, Naphthalene2-sulfonic acid [4(3-nitro-phenyl)-thiazol-2-yl)-amide], the “% of control 30 μM/kg p.o in the liver” value at kynurenin-3-hydroxylase [1] came to 20.00%. For the same compound, on kynurenin-3-hydroxylase [2], the remaining activity at 1 µM stood at 4% and half-maximal inhibition (IC50) required 30 nM.
Turning to `COc1ccc(S(=O)(=O)Nc2nc(-c3cccc([N+](=O)[O-])c3)cs2)cc1OC` [Example 21, 3,4-Dimethoxy-N-[4-(3-nitro-phenyl)-thiazol-2-yl]-benzenesulfonamide], on kynurenin-3-hydroxylase [1], the “% of control 30 μM/kg p.o in the liver” value turned out to be 10.00% and it took a dose of 4.7 µmol/kg to reach the 50% effect level (ED50). Moreover, on kynurenin-3-hydroxylase [2], the remaining activity at 1 µM was found to be 2% and 26 nM corresponded to half-maximal inhibition (IC50).
Take `Cc1ccc(S(=O)(=O)Nc2nc(-c3cc(C(F)(F)F)ccc3F)cs2)cc1` [Example 32, N-[4-(2-Fluoro-5-trifluoromethyl-phenyl)-thiazol-2-yl]-4-methyl-benzenesulfonamide]: the ED50 at kynurenin-3-hydroxylase [1] was 17 µmol/kg. For the same compound, at kynurenin-3-hydroxylase [2], the remaining activity at 1 µM came out at 2.5% and half-maximal inhibition (IC50) was put at 43 nM.
`Cc1cc(NS(=O)(=O)c2ccc(N)cc2)no1` [SMZ, sulfamethoxazole, reference compound]: the minimal inhibitory concentration (MIC) was > 256 µg/mL in the test with Listeria monocytogenes; 32 µg/mL (≈ 126 µM) in the test with Staphylococcus aureus (ATCC25923, 18 h); > 256 µg/mL with Streptococcus pneumoniae (ATCC49619, 18 h); > 256 µg/mL against Enterococcus faecalis (ATCC29212, 18 h); > 256 µg/mL in the test on Pseudomonas aeruginosa; 16 µg/mL (≈ 63.2 µM) in the test with Streptococcus pyogenes. In the test with Escherichia coli, this compound returned an MIC of 128 µg/mL (≈ 505 µM).
On kynurenin-3-hydroxylase [1], `Nc1ccc(S(=O)(=O)Nc2nc(-c3cc(C(F)(F)F)ccc3F)cs2)cc1` [Example 42, 4-Amino-N-[4-(2-fluoro-5-trifluoromethyl-phenyl)-thiazol-2-yl]benzenesulfonamide] gave an ED50 of 4.6 µmol/kg. The MIC with Listeria monocytogenes (setting [3]) was > 256 µg/mL; with Staphylococcus aureus (setting [4]), 16 µg/mL (≈ 38.3 µM); in the test on Streptococcus pneumoniae (setting [5]), > 256 µg/mL; in the test on Enterococcus faecalis (setting [6]) it was > 256 µg/mL; in the test with Pseudomonas aeruginosa (setting [7]), > 256 µg/mL; with Streptococcus pyogenes (setting [8]), 16 µg/mL (≈ 38.3 µM). Besides, the lowest concentration to inhibit growth against Escherichia coli (MIC) was 256 µg/mL (≈ 613 µM). In addition, the remaining activity at 1 µM on kynurenin-3-hydroxylase [2] was 1.4%. At kynurenin-3-hydroxylase [2], this compound had a half-inhibitory concentration (IC50) of 15 nM.
`Cc1ccc(S(=O)(=O)Nc2nc(-c3cccc([N+](=O)[O-])c3)cs2)cc1` [Example 3, 4-Methyl-N-[4-(3-nitro-phenyl)-thiazol-2-yl]-benzene-sulfonamide]: the “% of control 30 μM/kg p.o in the liver” value on kynurenin-3-hydroxylase [1] was 43.00%. For the same compound, at kynurenin-3-hydroxylase [2], the IC50 was found to be 40 nM.
Regarding `COc1cc(Cc2cnc(N)nc2N)cc(OC)c1OC` [TMP, trimethoprim, reference compound], the MIC in the test on Listeria monocytogenes (setting [3]) is 0.25 µg/mL (≈ 0.861 µM); with Staphylococcus aureus (setting [4]), 0.5 µg/mL (≈ 1.72 µM); in the test on Streptococcus pneumoniae (setting [5]), 4 µg/mL (≈ 13.8 µM); in the test on Enterococcus faecalis (ATCC29212, 18 h), 0.125 µg/mL (≈ 0.431 µM); with Pseudomonas aeruginosa (setting [7]), 8 µg/mL (≈ 27.6 µM); in the test on Streptococcus pyogenes (setting [8]), 2 µg/mL (≈ 6.89 µM). Besides, in the test on Escherichia coli, it took 1 µg/mL (≈ 3.44 µM) to inhibit growth (MIC).
